Assay results: ChEMBL document CHEMBL5550219, “Distinct Amino Acid-Based PROTACs Target Oncogenic Kinases for Degradation in Non-Small Cell Lung Cancer (NSCLC)” (J Med Chem, 2024)
Calls of active or inactive are those of the source. The calls are words filed in the database; no cut-off is given here.

Experiments:
[1] = tested on: NCI-H3122; test: Effect on EML4-ALK expression in human NCI-H3122 cells upto 20 uM incubated for 72 hrs by immunoblot analysis; assay type: functional, cell-based
[2] = molecular target: T1, ZYG11B/ZER1/EML4-ALK (Homo sapiens, UniProt Q9UM73+Q9HC35+Q9C0D3+Q7Z7L7); test: PROTAC (AATac) activity at ZYG11B/ZER1/EML4-ALK in human NCI-H3122 cells assessed as protein degradation at 10 uM incubated for 48 to 72 hrs by immunoblot analysis relative to control; assay type: cell-based; conditions: time 48-72 hrs
[3] = tested on: Protein zyg-11 homolog B/Protein zer-1 homolog/Epidermal growth factor receptor (Homo sapiens), P00533+Q9C0D3+Q7Z7L7 [L858R,T790M]; test: PROTAC (AATac) activity at ZYG11B/ZER1/EGFR L858R/T790M mutant in human NCI-H1975 cells harboring shZYG11B assessed as protein degradation incubated for 72 hrs by immunoblot analysis; assay type: cell-based
[4] = molecular target: T1, ZYG11B/ZER1/EML4-ALK; test: PROTAC (AATac) activity at ZYG11B/ZER1/EML4-ALK in human NCI-H3122 cells assessed as protein degradation incubated for 48 to 72 hrs by immunoblot analysis; assay type: cell-based
[5] = tested on: Protein zyg-11 homolog B/Protein zer-1 homolog/Epidermal growth factor receptor (Homo sapiens), P00533+Q9C0D3+Q7Z7L7 [L858R,T790M]; test: PROTAC (AATac) activity at ZYG11B/ZER1/EGFR L858R/T790M mutant in human NCI-H1975 cells assessed as protein degradation at 20 uM incubated for 24 hrs by immunoblot analysis; assay type: cell-based
[6] = molecular target: Protein zyg-11 homolog B/Protein zer-1 homolog/Epidermal growth factor receptor (Homo sapiens, UniProt P00533+Q9C0D3+Q7Z7L7, T790M/L858R); test: PROTAC (AATac) activity at ZYG11B/ZER1/EGFR L858R/T790M mutant in human NCI-H1975 cells assessed as protein degradation incubated for 48 to 72 hrs by immunoblot analysis; assay type: cell-based
[7] = tested on: NCI-H3122; test: Antitumor activity against human NCI-H3122 cells xenografted in nude mouse assessed as reduction in ALK level at 10 mg/kg, ip measured after 24 hrs by immunoblot analysis; assay type: functional, organism-based
[8] = molecular target: T1, ZYG11B/ZER1/EML4-ALK; test: PROTAC (AATac) activity at ZYG11B/ZER1/EML4-ALK in human NCI-H3122 cells assessed as protein degradation upto 20 uM incubated for 72 hrs by immunoblot analysis; assay type: cell-based
[9] = tested on: PC-9; test: Effect on EGFR del19 mutant expression in human PC-9 cells upto 20 uM incubated for 72 hrs by immunoblot analysis; assay type: functional, cell-based
[10] = tested on: NCI-H1299; test: Effect on wild-type EGFR expression in human NCI-H1299 cells upto 20 uM incubated for 72 hrs by immunoblot analysis; assay type: functional, cell-based
[11] = tested on: Protein zyg-11 homolog B/Protein zer-1 homolog/Epidermal growth factor receptor (Homo sapiens), P00533+Q9C0D3+Q7Z7L7 [L858R,T790M]; test: PROTAC (AATac) activity at ZYG11B/ZER1/EGFR L858R/T790M mutant in human NCI-H1975 cells harboring shZER1 assessed as protein degradation incubated for 72 hrs by immunoblot analysis; assay type: cell-based
[12] = tested on: Protein zyg-11 homolog B/Protein zer-1 homolog/Epidermal growth factor receptor (Homo sapiens), P00533+Q9C0D3+Q7Z7L7 [L858R,T790M]; test: PROTAC (AATac) activity at ZYG11B/ZER1/EGFR L858R/T790M mutant in human NCI-H1975 cells assessed as protein degradation at 20 uM incubated for 48 to 72 hrs by immunoblot analysis relative to control; assay type: cell-based; conditions: time 48-72 hrs
[13] = molecular target: T1, ZYG11B/ZER1/EML4-ALK; test: PROTAC (AATac) activity at ZYG11B/ZER1/EML4-ALK in human NCI-H3122 cells harboring shZYG11B assessed as protein degradation incubated for 24 hrs by immunoblot analysis; assay type: cell-based
[14] = tested on: NCI-H1975; test: Inhibition of cell viability in human NCI-H1975 cells incubated for 48 to 72 hrs by CCK8 assay
[15] = molecular target: T1, ZYG11B/ZER1/EML4-ALK; test: PROTAC (AATac) activity at ZYG11B/ZER1/EML4-ALK in human NCI-H3122 cells harboring shZER1 assessed as protein degradation incubated for 24 hrs by immunoblot analysis; assay type: cell-based
[16] = tested on: Protein zyg-11 homolog B/Protein zer-1 homolog/Epidermal growth factor receptor (Homo sapiens), P00533+Q9C0D3+Q7Z7L7 [L858R,T790M]; test: PROTAC (AATac) activity at ZYG11B/ZER1/EGFR L858R/T790M mutant in human NCI-H1975 cells assessed as protein degradation upto 20 uM incubated for 72 hrs by immunoblot analysis; assay type: cell-based
[17] = molecular target: T1, ZYG11B/ZER1/EML4-ALK; test: PROTAC (AATac) activity at ZYG11B/ZER1/EML4-ALK in human NCI-H3122 cells assessed as protein degradation at 10 uM incubated for […] by immunoblot analysis; assay type: cell-based
[18] = tested on: A549; test: Effect on wild-type EGFR expression in human A549 cells upto 20 uM incubated for 72 hrs by immunoblot analysis; assay type: functional, cell-based
[19] = tested on: NCI-H3122; test: Inhibition of cell viability in human NCI-H3122 cells incubated for 48 to 72 hrs by CCK8 assay
[20] = tested on: NCI-H3122; test: Inhibition of EML4-ALK phosphorylation in human NCI-H3122 cells at 2.5 uM incubated for 48 hrs followed by compound removal and incubation in drug-free medium for 12 to 72 hrs by immunoblot analysis; assay type: cell-based
[21] = tested on: Glucose-induced degradation protein 4 homolog/Epidermal growth factor receptor (Homo sapiens), P00533+Q8IVV7 [L858R,T790M]; test: Inhibition of EGFR L858R/T790M mutant phosphorylation in human NCI-H1975 cells at 20 uM incubated for 72 hrs followed by compound removal and incubation in drug-free medium for 12 to 72 hrs by immunoblot analysis; assay type: cell-based
[22] = tested on: Epidermal growth factor receptor (Homo sapiens), P00533 [L858R,T790M]; test: Induction of EGFR L858R/T790M mutant degradation in human NCI-H1975 cells harboring sgGID4 at 1 to 20 uM incubated for 24 hrs by immunoblot analysis; assay type: cell-based; conditions: dose 1-20 µM
[23] = tested on: Epidermal growth factor receptor (Homo sapiens), P00533 [L858R,T790M]; test: Inhibition of EGFR L858R/T790M mutant phosphorylation in human NCI-H1975 cells harboring sgGID4 at 1 to 20 uM incubated for 24 hrs by immunoblot analysis; assay type: cell-based; conditions: dose 1-20 µM
[24] = molecular target: T2, UBR/ALK tyrosine kinase receptor/Echinoderm microtubule-associated protein-like 4 (Homo sapiens) (UniProt Q9UM73+Q9HC35+Q5T4S7+Q8IWV7+Q8IWV8); test: PROTAC (AATac) activity at UBR1/2/4/EML4-ALK in human NCI-H3122 cells assessed as protein degradation upto 20 uM incubated for 72 hrs by immunoblot analysis; assay type: cell-based
[25] = molecular target: T2, UBR/ALK tyrosine kinase receptor/Echinoderm microtubule-associated protein-like 4 (Homo sapiens); test: PROTAC (AATac) activity at UBR1/2/4/EML4-ALK in human NCI-H3122 cells assessed as protein degradation at 10 uM incubated for 48 to 72 hrs by immunoblot analysis relative to control; assay type: cell-based; conditions: time 48-72 hrs
[26] = tested on: UBR/Epidermal growth factor receptor (Homo sapiens), P00533+Q5T4S7+Q8IWV7+Q8IWV8 [L858R,T790M]; test: PROTAC (AATac) activity at UBR1/2/4/EGFR L858R/T790M mutant in human NCI-H1975 cells assessed as protein degradation upto 20 uM incubated for 72 hrs by immunoblot analysis; assay type: cell-based
[27] = molecular target: T2, UBR/ALK tyrosine kinase receptor/Echinoderm microtubule-associated protein-like 4 (Homo sapiens); test: PROTAC (AATac) activity at UBR1/2/4/EML4-ALK in human NCI-H3122 cells assessed as protein degradation at 10 uM incubated for approximately 3 hrs by immunoblot analysis; assay type: cell-based
[28] = tested on: UBR/Epidermal growth factor receptor (Homo sapiens), P00533+Q5T4S7+Q8IWV7+Q8IWV8 [L858R,T790M]; test: PROTAC (AATac) activity at UBR1/2/4/EGFR L858R/T790M mutant in human NCI-H1975 cells assessed as protein degradation at 20 uM incubated for 48 to 72 hrs by immunoblot analysis relative to control; assay type: cell-based; conditions: time 48-72 hrs
[29] = molecular target: UBR/ALK tyrosine kinase receptor/Echinoderm microtubule-associated protein-like 4; test: PROTAC (AATac) activity at UBR1/2/4/EML4-ALK in human NCI-H3122 cells assessed as protein degradation incubated for 48 to 72 hrs by immunoblot analysis; assay type: cell-based
[30] = tested on: UBR/Epidermal growth factor receptor (Homo sapiens), P00533+Q5T4S7+Q8IWV7+Q8IWV8 [L858R,T790M]; test: PROTAC (AATac) activity at UBR1/2/4/EGFR L858R/T790M mutant in human NCI-H1975 cells assessed as protein degradation at 20 uM incubated for 48 hrs by immunoblot analysis; assay type: cell-based
[31] = molecular target: UBR/Epidermal growth factor receptor (Homo sapiens, UniProt P00533+Q5T4S7+Q8IWV7+Q8IWV8, T790M/L858R); test: PROTAC (AATac) activity at UBR1/2/4/EGFR L858R/T790M mutant in human NCI-H1975 cells assessed as protein degradation incubated for 48 to 72 hrs by immunoblot analysis; assay type: cell-based

COc1cc(N2CCN(C(=O)CCOCCOCCOCCNC(=O)[C@@H](N)CCCN)CC2)ccc1Nc1ncc(Cl)c(Nc2ccccc2P(C)(C)=O)n1
Activity [1]: inactive

COc1cc(N2CCN(C(=O)CCOCCOCCOCCNC(=O)CN)CC2)ccc1Nc1ncc(Cl)c(Nc2ccccc2P(C)(C)=O)n1
Emax [2]: 98% | Activity [3]: inactive | DC50 [4]: 0.5 µM | Activity [5]: Active | DC50 [6]: 20.1 µM | Activity [7]: Active | Activity [8]: Active | Activity [9]: inactive | Activity [10]: inactive | Activity [11]: inactive | Activity [12]: 43% | Activity [13]: inactive | IC50 [14]: 20.7 µM | Activity [15]: inactive | Activity [16]: Active | Activity [17]: Active | Activity [18]: inactive | IC50 [19]: 0.84 µM

COc1cc(N2CCNCC2)ccc1Nc1ncc(Cl)c(Nc2ccccc2P(C)(C)=O)n1
inhibition [20]: inactive | inhibition [21]: inactive | Activity [22]: inactive | IC50 [14]: 0.88 µM | Activity [1]: inactive | Activity [23]: inactive | IC50 [19]: 0.3 µM

COc1cc(N2CCN(C(=O)CCOCCOCCOCCNC(=O)[C@@H](N)CCCCN)CC2)ccc1Nc1ncc(Cl)c(Nc2ccccc2P(C)(C)=O)n1
Activity [24]: Active | Emax [25]: 91% | Activity [26]: Active | Activity [9]: inactive | Activity [10]: inactive | Activity [27]: Active | Activity [28]: 52% | IC50 [14]: 18.6 µM | DC50 [29]: 1.32 µM | Activity [30]: Active | Activity [18]: inactive | IC50 [19]: 5.3 µM | DC50 [31]: 19.7 µM
